Values of other authors, collected in patent publication US20220259243A1, “IRON(III) AND GALLIUM(III) METAL ORGANIC POLYHEDRA, METHODS OF MAKING SAME, AND USES THEREOF” (The Research Foundation for The State University of New York, priority 2019, published 2022).

Conditions: 37° C., 4.7 Tesla, neutral pH

r1 relaxivity: 3 mM⁻¹ s⁻¹
Compound: CNC[C@H](O)[C@@H](O)[C@H](O)[C@H](O)CO.CNC[C@H](O)[C@@H](O)[C@H](O)[C@H](O)CO.O=C([O-])CN(CCN(CC(=O)[O-])CC(=O)O)CCN(CC(=O)[O-])CC(=O)O.[Gd+3] [Magnevist]
